Results taken from patent US8741836B2, “Polypeptides” (Novo Nordisk A/S, priority 2011, dated 2014).
Like-named read-outs stand apart in the source and are kept apart here. Starred links: 1 amine or outer side, 2 acyl side, 3 side chain; linkers in the order of their positions; H or OH if unused. Positions of bridges follow the written chain, without caps; N, C: chain ends. Residues, ends and D or L forms follow the SMILES beside them. Groups on a side chain read outwards from the residue. *: point of attachment. C18 diacid = O=C(O)CCCCCCCCCCCCCCCCC(=O)*; γGlu = O=C(O)[C@H](CCC(=O)[*:2])N[*:1]; AEEA = NCCOCCOCC(=O)O

What was measured:
[1] = molecular target: T1, human amylin 3(a) receptor (human calcitonin receptor + RAMP-3) (Homo sapiens, UniProt O60896+P30988); experiment: Assay (II)a functional assay, human amylin receptor (CRE luciferase reporter in BHK cells); format: cell-based
T1 construct: expressed in transfected cells; CRE-luciferase reporter
T1 sequence (P30988 25-474): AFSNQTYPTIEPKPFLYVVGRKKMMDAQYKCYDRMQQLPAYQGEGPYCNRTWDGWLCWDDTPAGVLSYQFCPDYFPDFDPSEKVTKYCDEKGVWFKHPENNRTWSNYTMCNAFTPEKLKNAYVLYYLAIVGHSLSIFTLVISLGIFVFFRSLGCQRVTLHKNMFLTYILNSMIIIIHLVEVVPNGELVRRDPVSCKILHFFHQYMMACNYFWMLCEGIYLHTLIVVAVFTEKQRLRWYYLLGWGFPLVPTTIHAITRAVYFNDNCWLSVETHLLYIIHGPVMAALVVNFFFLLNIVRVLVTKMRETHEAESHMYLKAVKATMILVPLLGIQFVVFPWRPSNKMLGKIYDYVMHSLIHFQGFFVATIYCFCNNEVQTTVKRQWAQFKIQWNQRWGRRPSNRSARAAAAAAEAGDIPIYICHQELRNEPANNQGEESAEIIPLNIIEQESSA
T1 sequence (O60896 24-148 partner): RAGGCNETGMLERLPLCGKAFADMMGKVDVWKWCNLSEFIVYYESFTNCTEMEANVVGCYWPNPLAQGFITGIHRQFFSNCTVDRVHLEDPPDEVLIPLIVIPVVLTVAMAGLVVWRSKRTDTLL
Description: (§1) 1. Luciferase Assay Outline
(§2) Activation of calcitonin and amylin (coexpression of calcitonin receptor and receptor activity modifying proteins (RAMP)) receptors lead to increased intracellular concentrations of cAMP. Consequently, transcription is activated by promoters containing multiple copies of the cAMP response element (CRE). It is thus possible to measure amylin activity by the use of a CRE luciferase reporter gene introduced into BHK cells also expressing calcitonin or amylin receptors.
(§3) A BHK570 cell line was stably transfected with the human calcitonin receptor and a CRE-responsive luciferase reporter gene. The cell line was further transfected with RAMP-3, using standard methods. This turns the calcitonin receptor into an amylin 3(a) receptor. Methotrexate, Neomycin, and Hygromycin are selection markers for luciferase, the calcitonin receptor, and RAMP-3, respectively.
(§4) To perform activity assays, BHK calcitonin (a) receptor- or amylin 3(a)-receptor/CRE-luc cells were seeded in white 96 well culture plates at a density of about 20.000 cells/well. […] After incubation overnight at 37° C. and 5% CO2, the growth medium was replaced by 50 μl/well assay medium (DMEM (without phenol red), Glutamax™, 10% FBS, and 10 mM Hepes, pH 7.4). Further, 50 μl/well of standard or sample in assay buffer were added. After 3 hours incubation at 37° C. and 5% CO2, the assay medium with standard or sample were removed and replaced by 100 μl/well PBS. Further, 100 μl/well LucLite™ was added. The plates were sealed and incubated at room temperature for 30 minutes. Finally, luminescence was measured on a TopCounter (Packard) in SPC (single photon counting) mode.

[2] = molecular target: T2, rat calcitonin (a) receptor (Rattus norvegicus, UniProt P32214); experiment: Assay (II)b functional assay, rat calcitonin receptor (cAMP FlashPlate); format: cell-based; conditions: Table 11, read-out: CTa receptor rat EC50
T2 construct: expressed in transfected cells; host or cells: BHK tk'ts 13 (transient, FuGENE 6)
T2 sequence (P32214 25-479 isoform P32214-2 limits assumed): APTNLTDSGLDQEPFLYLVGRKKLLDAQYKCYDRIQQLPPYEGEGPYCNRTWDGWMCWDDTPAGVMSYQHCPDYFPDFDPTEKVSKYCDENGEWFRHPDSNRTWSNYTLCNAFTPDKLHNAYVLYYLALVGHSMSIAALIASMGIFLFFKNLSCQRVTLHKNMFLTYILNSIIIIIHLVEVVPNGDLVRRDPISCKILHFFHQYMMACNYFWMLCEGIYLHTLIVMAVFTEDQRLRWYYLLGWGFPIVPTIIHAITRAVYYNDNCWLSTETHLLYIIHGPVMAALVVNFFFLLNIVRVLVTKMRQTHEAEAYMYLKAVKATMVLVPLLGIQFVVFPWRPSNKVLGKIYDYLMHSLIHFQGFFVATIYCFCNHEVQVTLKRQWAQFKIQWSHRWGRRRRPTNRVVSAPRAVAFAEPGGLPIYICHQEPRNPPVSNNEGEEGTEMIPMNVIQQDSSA
Description: Assay (II)b—Rat Calcitonin and Rat Amylin Receptor Assays
Activation of calcitonin and amylin (coexpression of calcitonin receptor and receptor activity modifying proteins (RAMP)) receptors lead to increased intracellular concentrations of cAMP. In order to quantify the cAMP levels in transiently transfected cells the Adenylyl Cyclase Activation FlashPlate® Assay from Perkin Elmer was used. The basic principle of the FlashPlate® Assay is a competition between radioactive and non-radioactive cAMP generated by the cells for a fixed number of binding sites.
Construction of Rat Calcitonin(a)- and Rat Amylin 3(a)-Receptor Cells.
BHK tk'ts 13 cells were transiently transfected with either rat calcitonin (a) receptor or amylin 3 (a) receptor (rat calcitonin(a) receptor+rat RAMP3) using FuGENE® 6 (Roche), according to the manufacturers recommendations.
24 hours after transient transfection the cells (rat calcitonin(a)- or rat amylin 3(a)-receptor cells) were added (100.000 cells/well) to the 96 well FlashPlates® with samples or standard in FlashPlate stimulation buffer with IBMX and incubated for 30 min. Detection mix was created according to manufacturers protocol and scintillation measured after 3 h of incubation on TopCounter™ (Packard).

[3] = Assay (IV) determination of solubility; format: physicochemical
Protocol: Assay (IV)—Determination of Solubility
The polypeptide was dissolved in water at −500 nmol/ml and mixed 1:1 with a series of buffers (100 mM glycylglycine pH 3.0, 100 mM glycylglycine pH 4.0, 100 mM glycylglycine pH 5.0, 100 mM bistrispropane pH 6.0, 100 mM bistrispropane pH 6.5, 100 mM bistrispropane pH 7.0, 100 mM bistrispropane pH 7.5, 100 mM bistrispropane pH 8.0). After 18 hours at room temperature the samples were centrifuged and the polypeptide concentration determined by HPLC.

[4] = molecular target: T3, human calcitonin receptor (Homo sapiens, UniProt P30988); experiment: Assay (II)a functional assay, human calcitonin receptor (CRE luciferase reporter in BHK cells); format: cell-based
T3 construct: expressed in transfected cells; CRE-luciferase reporter
T3 sequence (P30988 25-474): T1 sequence (P30988 25-474)
Description: as §1, §2, §3, §4

SMILES: CC[C@H](C)[C@H](NC(=O)[C@@H]1CCCN1C(=O)CNC(=O)[C@H](Cc1ccccc1)NC(=O)[C@H](CC(N)=O)NC(=O)[C@H](CCCCNC(=O)COCCOCCNC(=O)COCCOCCNC(=O)CC[C@H](NC(=O)CCCCCCCCCCCCCCCCC(=O)O)C(=O)O)NC(=O)[C@H](CO)NC(=O)[C@H](CO)NC(=O)[C@H](Cc1c[nH]cn1)NC(=O)[C@H](Cc1c[nH]cn1)NC(=O)[C@H](CC(C)C)NC(=O)[C@H](Cc1ccccc1)NC(=O)[C@H](CCC(=O)O)NC(=O)[C@H](C)NC(=O)[C@H](CC(C)C)NC(=O)[C@H](CCCNC(=N)N)NC(=O)[C@H](CCC(N)=O)NC(=O)[C@@H](NC(=O)[C@H](C)NC(=O)[C@@H]1CSSC[C@H](NC(=O)[C@@H](N)CCCCN)C(=O)N[C@@H](CC(N)=O)C(=O)N[C@@H]([C@@H](C)O)C(=O)N[C@@H](C)C(=O)N[C@@H]([C@@H](C)O)C(=O)N1)[C@@H](C)O)C(=O)N[C@@H](CC(C)C)C(=O)N1CCC[C@H]1C(=O)N1CCC[C@H]1C(=O)N[C@H](C(=O)N[C@@H](CC(N)=O)C(=O)N[C@H](C(=O)NCC(=O)N[C@@H](CO)C(=O)N[C@@H](CCC(=O)O)C(=O)N[C@H](C(=O)N[C@@H](Cc1ccc(O)cc1)C(N)=O)[C@@H](C)O)C(C)C)[C@@H](C)O [Example 74, N-epsilon21-[2-(2-{2-[2-(2-{2-[(S)-4-Carboxy-4-(17-carboxyheptadecanoylamino)butyrylamino]ethoxy}ethoxy)acetylamino]ethoxy}ethoxy)acetyl]-[Glu14,His17,Lys21,Glu35]-pramlintide] (H-KCNTATCATQRLAEFLHHSSK([AEEA-AEEA-γGlu-C18 diacid])NFGPILPPTNVGSETY-NH2; disulfide 2-7 (inferred); N-terminus and C-terminus assumed)
- EC50 [1]: 0.184 nM
- EC50 ([1]; Table 4): 0.184 nM
- EC50 ([1]; Table 5): 0.184 nM
- EC50 ([1]; Table 6, human amylin receptor): 0.184 nM
- EC50 ([1]; Table 7, human amylin receptor): 0.184 nM
- EC50 ([1]; Table 8, human amylin receptor): 0.184 nM
- EC50 ([1]; Table 11, human amylin receptor): 0.184 nM
- EC50 [2]: 2.06 nM
- solubility at 18 h ([3]; bistrispropane buffer, pH 6.5, read-out: Solubility): > 200 µM
- solubility at 18 h ([3]; bistrispropane buffer, pH 7.5, read-out: Solubility pH 7.5): > 200 µM
- solubility at 18 h ([3]; bistrispropane buffer, pH 6.0, read-out: Solubility): > 200 µM
- solubility at 18 h ([3]; bistrispropane buffer, pH 7.0, read-out: Solubility pH 7.0): > 200 µM
- solubility at 18 h ([3]; bistrispropane buffer, pH 8.0, read-out: Solubility): > 200 µM
- solubility at 18 h ([3]; glycylglycine buffer, pH 3.0, read-out: Solubility): > 200 µM
- solubility at 18 h ([3]; glycylglycine buffer, pH 4.0, read-out: Solubility pH 4.0): > 200 µM
- solubility at 18 h ([3]; glycylglycine buffer, pH 5.0, read-out: Solubility): > 200 µM
- solubility at 18 h ([3]; pH 4.0, read-out: Solubility): >200 µM
- solubility at 18 h ([3]; pH 7.0, read-out: Solubility): >200 µM
- solubility at 18 h ([3]; pH 7.5, read-out: Solubility): >200 µM
- EC50 ([4]; Table 7, human calcitonin (CTa) receptor): 0.216 nM
- EC50 ([4]; Table 11, human calcitonin receptor, read-out: CTa receptor human EC50): 0.216 nM
